Laboratory results reported in patent publication US20060079696A1, “Substituted compounds derived from N-(benzyl)phenylacetamide, preparation and uses” (GENFIT, priority 2004, published 2006).

Experiments:
hPPARα = target: T1, hPPARα (Homo sapiens, UniProt Q07869); assay: Gal4-hPPARα chimera transactivation in COS-7 cells (luciferase); format: cell-based; conditions: induction factor standardised to an internal reference, read-out: % hGal4-PPAR transactivation (10 μM) alpha
T1 construct: fragments of DNA amplified by PCR corresponding to the DEF domains of the human PPARα, PPARγ PPARδ nuclear receptors; expressed in transfected cells; host or cells: COS-7 (monkey kidney fibroblast line)
T1 sequence (Q07869 239-466 limits assumed): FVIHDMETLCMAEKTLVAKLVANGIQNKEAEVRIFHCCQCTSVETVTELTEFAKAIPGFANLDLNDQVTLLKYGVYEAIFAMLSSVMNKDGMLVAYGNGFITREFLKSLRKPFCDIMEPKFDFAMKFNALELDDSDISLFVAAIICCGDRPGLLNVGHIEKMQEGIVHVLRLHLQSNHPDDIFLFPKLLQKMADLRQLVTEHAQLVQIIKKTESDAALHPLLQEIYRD
Method: (§1) The PPAR activation was evaluated in vitro on a monkey kidney fibroblast line (COS-7) by measuring the transcriptional activity of chimeras constituted of the DNA binding domain of the Gal4 transcription factor of yeast and of the binding domain to the ligand of the different PPARs. The compounds were tested at doses between 0.01 and 100 μM on Gal4-PPARα, γ, δ chimeras. The induction factor (ratio between the luminescence induced by the compound and the luminescence induced by the control) was measured for each condition: the higher this factor, the more the compound has PPAR-activating properties.
(§2) The COS-7 cells from ATCC were cultivated in a DMEM medium supplemented with 10% (vol/vol) of foetal calf serum, 100 U/ml penicillin (Gibco, Paisley, UK) and 2 mM L-Glutamine (Gibco, Paisley, UK). The cells were incubated at 37° C. in a humid atmosphere containing 5% CO2.
(§3) The Gal4(RE)_TkpGL3, pGal4-hPPARα, pGal4-hPPARγ, pGal4-hPPARδ and pGal4-φ plasmids have been described in the literature (Raspe, Madsen et al. 1999). The pGal4-hPPARα, pGal4-hPPARγ and pGal4-hPPARδ constructs were obtained by cloning in the pGal4-φ vector of fragments of DNA amplified by PCR corresponding to the DEF domains of the human PPARα, PPARγ PPARδ nuclear receptors.
(§4) COS-7 cells were plated in 96 wells plates (5×10^4 cells/well) and transfected, in the presence of 10% foetal calf serum and 150 ng DNA per well, with a pGal4-PPAR/Gal4(RE)_TkpGL3 ratio of 1/10. The cells were then incubated for 24 hours with the compounds to be tested, without serum. At the end of the experiment, the cells were lysed and the luciferase activities were determined by means of Steady Glow Luciferase (Promega) according to the supplier's recommendations.
(§5) The inventive compounds were tested at 10 μM on the 3 PPAR isoforms. The results obtained are detailed in table (1). The transactivation measured is expressed as a response ratio versus an internal reference for each of the isoforms.
(§6) The compounds were tested at 10 μM on the Gal4-PPARα, γ, δ chimeras. The induction factor, i.e. the ratio between the luminescence induced by the compound and the luminescence induced by the control, was measured for each condition. It was then standardised in comparison to an internal reference and the results were then expressed in percentages : the higher the activation percentage, the more the compound has PPAR-activating properties.

hPPARγ = target: T2, hPPARγ (Homo sapiens, UniProt P37231); assay: Gal4-hPPARγ chimera transactivation in COS-7 cells (luciferase); format: cell-based; conditions: induction factor standardised to an internal reference, read-out: % hGal4-PPAR transactivation (10 μM) gamma
T2 construct: fragments of DNA amplified by PCR corresponding to the DEF domains of the human PPARα, PPARγ PPARδ nuclear receptors; expressed in transfected cells; host or cells: COS-7 (monkey kidney fibroblast line)
T2 sequence (P37231 238-503 limits assumed): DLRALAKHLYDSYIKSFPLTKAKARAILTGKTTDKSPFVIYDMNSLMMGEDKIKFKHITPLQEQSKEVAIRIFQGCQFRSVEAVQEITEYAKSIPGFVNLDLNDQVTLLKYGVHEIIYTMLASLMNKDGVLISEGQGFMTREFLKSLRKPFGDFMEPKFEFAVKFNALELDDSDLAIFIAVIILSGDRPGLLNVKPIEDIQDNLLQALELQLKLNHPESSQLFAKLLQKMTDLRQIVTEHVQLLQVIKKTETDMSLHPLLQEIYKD
Method: as §1, §2, §3, §4, §5, §6

hPPARδ = target: T3, hPPARδ (Homo sapiens, UniProt Q03181); assay: Gal4-hPPARδ chimera transactivation in COS-7 cells (luciferase); format: cell-based; conditions: induction factor standardised to an internal reference, read-out: % hGal4-PPAR transactivation (10 μM) delta
T3 construct: fragments of DNA amplified by PCR corresponding to the DEF domains of the human PPARα, PPARγ PPARδ nuclear receptors; expressed in transfected cells; host or cells: COS-7 (monkey kidney fibroblast line)
T3 sequence (Q03181 211-439 limits assumed): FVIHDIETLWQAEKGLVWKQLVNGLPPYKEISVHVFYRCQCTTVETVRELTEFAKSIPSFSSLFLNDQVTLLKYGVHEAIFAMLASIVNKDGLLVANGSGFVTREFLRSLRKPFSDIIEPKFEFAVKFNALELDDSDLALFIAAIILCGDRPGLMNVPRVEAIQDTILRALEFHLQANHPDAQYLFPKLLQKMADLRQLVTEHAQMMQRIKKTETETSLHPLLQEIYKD
Method: as §1, §2, §3, §4, §5, §6

[1] = target: T4, ATP-dependent potassium channels (K+ATP) (Rattus norvegicus, UniProt Q09429); assay: [3H]glibenclamide binding to ATP-dependent potassium channels of rat cerebral cortex; conditions: for inhibition at 0.3 µM: 1 h, 300 nM, specific displacement of [3H]glibenclamide 0.1 nM, read-out: KATP binding (300 nM)
T4 construct: the potassium channels derive from a rat's cerebral cortex; tissue CEREP; host or cells: rat cerebral cortex
Method: The results shown reflect the specific affinity of the inventive compounds on the ATP-dependent (K^+ATP) potassium channels. The specific binding measured corresponds to the difference between the total binding and the non-specific binding determined in the presence of an excess of non-marked reference ligand (glibenclamide 1 μM). The inventive compounds were tested at doses between 3 and 300 nM: the higher the percentage measured, the stronger the affinity of the compound for the ATP-dependent potassium channels.
The binding test was carried out at CEREP (Celle L'Evescault, France (86)) according to a protocol inspired by Angel et al. (Angel and Bidet 1991): the potassium channels derive from a rat's cerebral cortex and the reference compound is [^3H]glibenclamide at 0.1 nM. The protocol consists of incubation at 22° C. for one hour.

T4 sequence (Q09429 whole entry): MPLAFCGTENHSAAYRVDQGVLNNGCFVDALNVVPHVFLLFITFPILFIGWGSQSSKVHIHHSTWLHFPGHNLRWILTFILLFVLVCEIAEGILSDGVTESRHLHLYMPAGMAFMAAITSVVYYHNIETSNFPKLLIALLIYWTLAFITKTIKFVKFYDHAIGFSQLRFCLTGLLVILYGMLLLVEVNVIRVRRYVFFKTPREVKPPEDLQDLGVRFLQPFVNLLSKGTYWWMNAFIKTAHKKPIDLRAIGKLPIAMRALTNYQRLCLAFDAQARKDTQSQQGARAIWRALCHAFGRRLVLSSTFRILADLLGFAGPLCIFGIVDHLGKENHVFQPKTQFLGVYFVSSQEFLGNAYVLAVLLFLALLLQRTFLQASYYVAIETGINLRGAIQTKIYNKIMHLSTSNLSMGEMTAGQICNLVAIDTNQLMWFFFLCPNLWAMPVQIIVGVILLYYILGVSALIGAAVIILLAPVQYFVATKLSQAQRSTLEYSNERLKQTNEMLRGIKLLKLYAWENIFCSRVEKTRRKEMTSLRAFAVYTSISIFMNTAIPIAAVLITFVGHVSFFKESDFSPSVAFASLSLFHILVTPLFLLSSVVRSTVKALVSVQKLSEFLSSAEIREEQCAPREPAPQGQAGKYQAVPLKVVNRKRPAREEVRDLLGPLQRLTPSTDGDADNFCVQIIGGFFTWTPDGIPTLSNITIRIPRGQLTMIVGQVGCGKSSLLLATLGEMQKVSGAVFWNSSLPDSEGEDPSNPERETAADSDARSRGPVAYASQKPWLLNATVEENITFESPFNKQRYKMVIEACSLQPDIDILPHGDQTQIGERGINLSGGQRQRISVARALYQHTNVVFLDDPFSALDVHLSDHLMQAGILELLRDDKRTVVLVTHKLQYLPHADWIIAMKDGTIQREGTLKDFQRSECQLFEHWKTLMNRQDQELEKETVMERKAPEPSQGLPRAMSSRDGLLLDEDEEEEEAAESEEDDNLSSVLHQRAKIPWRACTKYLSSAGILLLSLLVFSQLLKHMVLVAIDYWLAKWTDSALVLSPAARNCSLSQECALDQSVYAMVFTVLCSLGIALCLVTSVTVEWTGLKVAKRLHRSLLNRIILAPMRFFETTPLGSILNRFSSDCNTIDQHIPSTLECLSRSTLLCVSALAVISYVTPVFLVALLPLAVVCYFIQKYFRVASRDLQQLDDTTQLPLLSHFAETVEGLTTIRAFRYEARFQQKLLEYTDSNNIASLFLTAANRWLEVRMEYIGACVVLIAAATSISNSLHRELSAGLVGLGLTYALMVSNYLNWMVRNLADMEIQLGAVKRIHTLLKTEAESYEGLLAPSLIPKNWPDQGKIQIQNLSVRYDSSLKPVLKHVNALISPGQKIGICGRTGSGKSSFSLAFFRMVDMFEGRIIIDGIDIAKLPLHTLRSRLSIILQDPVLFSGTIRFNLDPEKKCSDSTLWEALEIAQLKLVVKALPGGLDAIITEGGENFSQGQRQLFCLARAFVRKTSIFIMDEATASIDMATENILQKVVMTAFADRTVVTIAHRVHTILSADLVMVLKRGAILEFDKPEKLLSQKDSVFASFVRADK
T4 sequence (P70673 whole entry partner): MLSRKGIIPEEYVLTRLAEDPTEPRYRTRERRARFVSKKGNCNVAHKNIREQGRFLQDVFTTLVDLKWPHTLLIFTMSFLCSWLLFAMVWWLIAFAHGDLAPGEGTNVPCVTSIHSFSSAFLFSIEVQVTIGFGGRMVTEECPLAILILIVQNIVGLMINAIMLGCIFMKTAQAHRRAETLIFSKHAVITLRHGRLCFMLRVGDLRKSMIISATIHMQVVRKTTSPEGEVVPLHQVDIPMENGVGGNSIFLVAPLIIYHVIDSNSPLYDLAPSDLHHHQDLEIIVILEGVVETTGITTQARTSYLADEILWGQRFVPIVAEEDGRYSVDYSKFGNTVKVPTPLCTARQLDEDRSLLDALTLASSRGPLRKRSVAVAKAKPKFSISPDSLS

SMILES	activation at 10 µM (hPPARα) [%]	activation at 10 µM (hPPARγ) [%]	activation at 10 µM (hPPARδ) [%]	inhibition at 0.3 µM [1] [%]	IC50 ([1]; FIG. 2) [nM]
CC(C)(Oc1ccc(CC(=O)NC(Cc2ccccc2)c2ccccc2N2CCCCC2)cc1)C(=O)O (stereo not drawn) [Compound 7, 2-[4-[1-(2-phenyl-1-(2-(1-piperidinyl)phenyl)ethyl)aminocarbonylmethyl]phenoxy]-2-methylpropanoic acid]	40	34	< 10	71	–
CCCCC(NC(=O)Cc1ccc(OC(C)(C)C(=O)O)cc1)c1ccccc1N1CCCCC1 (stereo not drawn) [Compound 10, 2-[4-[1-(1-(2-(1-piperidinyl)phenyl)pentyl)aminocarbonylmethyl]phenoxy]-2-methylpropanoic acid]	11	49	< 10	–	63
CC(C)CC(NC(=O)Cc1ccc(OC(C)(C)C(=O)O)cc1)c1ccc(C(F)(F)F)cc1N1CCCCC1 (stereo not drawn) [Compound 21, 2-[4-[1-(3-methyl-1-(2-(1-piperidinyl)-4-(trifluoromethyl)phenyl)butyl)aminocarbonylmethyl]phenoxy]-2-methylpropanoic acid]	< 10	25	24	68	–
CC(C)CC(NC(=O)Cc1ccc(OCCCC(C)(C)C(=O)O)cc1)c1ccccc1N1CCCCC1 (stereo not drawn) [Compound 28, 5-[4-[1-(3-methyl-1-(2-(1-piperidinyl)phenyl)butyl)aminocarbonylmethyl]phenoxy]-2,2-dimethylpentanoic acid]	35	17	< 10	30	–
CC(C)CC(C(=O)NCc1ccc(OC(C)(C)C(=O)O)cc1)c1ccccc1N1CCCCC1 (stereo not drawn) [Compound 32, 2-[4-[1-(3-methyl-1-(2-(1-piperidinyl)phenyl)butyl)carbonylaminomethyl]phenoxy]-2-methylpropanoic acid]	< 10	25	< 10	93	–
CCCCC(NC(=O)Cc1ccc(OC(C)(C)C(=O)O)cc1)c1ccc(Br)cc1N1CCCCC1 (stereo not drawn) [Compound 33, 2-[4-[1-(1-(2-(1-piperidinyl)-4-(bromo)phenyl)pentyl)aminocarbonylmethyl]phenoxy]-2-methylpropanoic acid]	< 10	42	23	51	–
CC(C)CC(NC(=O)C(C)c1ccc(OC(C)(C)C(=O)O)cc1)c1ccccc1N1CCCCC1 (stereo not drawn) [Compound 34, 2-[4-[1-methyl-1-[1-(3-methyl-1-(2-(1-piperidinyl)phenyl)butyl)aminocarbonyl]methyl]phenoxy]-2-methylpropanoic acid]	< 10	30	< 10	81	–
CCCCC(NC(=O)Cc1ccc(OC(C)(C)C(=O)O)cc1)c1cccc(F)c1N1CCCCC1 (stereo not drawn) [Compound 45, 2-[4-[1-(1-(3-fluoro-2-(1-piperidinyl)phenyl)pentyl)aminocarbonylmethyl]phenoxy]-2-methylpropanoic acid]	31	62	< 10	66	–

Now from value to molecule:

activation at 10 µM (hPPARα) [%]	activation at 10 µM (hPPARγ) [%]	activation at 10 µM (hPPARδ) [%]	inhibition at 0.3 µM [1] [%]	IC50 ([1]; FIG. 2) [nM]	SMILES
< 10	40	< 10	25	–	CCCCC(NC(=O)Cc1ccccc1OCCCC(C)(C)C(=O)O)c1ccccc1N1CCCCC1 (stereo not drawn) [Compound 53, 5-[2-[1-(1-(2-(1-piperidinyl)phenyl)pentyl)aminocarbonylmethyl]phenoxy]-2,2-dimethylpentanoic acid]
< 10	30	< 10	79	–	CCCCC(NC(=O)Cc1ccc(OC(C)(C)C(=O)O)cc1)c1ccccc1OC (stereo not drawn) [Compound 54, 2-[4-[1-(1-(2-(methoxy)phenyl)pentyl)aminocarbonylmethyl]phenoxy]-2-methylpropanoic acid]
< 10	33	< 10	27	–	Cc1cccc(CC(NC(=O)Cc2ccc(OC(C)(C)C(=O)O)cc2)c2ccccc2N2CCCCC2)c1 (stereo not drawn) [Compound 55, 2-[4-[1-(2-(3-methylphenyl)-1-(2-(1-piperidinyl)phenyl)ethyl)aminocarbonylmethyl]phenoxy]-2-methylpropanoic acid]
29	< 10	< 10	18	–	CC(C)CC(NC(=O)Cc1ccc(OCCCCC(C)(C)C(=O)O)cc1)c1ccccc1N1CCCCC1 (stereo not drawn) [Compound 57, 6-[4-[1-(3-methyl-1-(2-(1-piperidinyl)phenyl)butyl)aminocarbonylmethyl]phenoxy]-2,2-dimethylhexanoic acid]
22	< 10	< 10	73	–	CC(C)CC(NC(=O)Cc1ccc(OC(C)(C)C(=O)NS(=O)(=O)C(F)(F)F)cc1)c1ccccc1N1CCCCC1 (stereo not drawn) [Compound 59, N-[trifluoromethylsulfonyl]-2-[4-[1-(3-methyl-1-(2-(1-piperidinyl)phenyl)butyl)aminocarbonylmethyl]phenoxy]-2-methylpropanamide]
20	< 10	< 10	23	–	CCCCC(NC(=O)Cc1ccc(OC(C)(C)C(=O)NS(=O)(=O)c2ccccc2)cc1)c1ccccc1N1CCCCC1 (stereo not drawn) [Compound 61, N-[phenylsulfonyl]-2-[4-[1-(1-(2-(1-piperidinyl)phenyl)pentyl)aminocarbonylmethyl]phenoxy]-2-methylpropanamide]
26	< 10	< 10	67	–	CCCCC(NC(=O)Cc1ccc(OC(C)(C)C(=O)NS(=O)(=O)Cc2ccccc2)cc1)c1ccccc1N1CCCCC1 (stereo not drawn) [Compound 63, N-[benzylsulfonyl]-2-[4-[1-(1-(2-(1-piperidinyl)phenyl)pentyl)aminocarbonylmethyl]phenoxy]-2-methylpropanamide]
